Key:
[1] = tested on: SAGPY (Arrowhead (Pygmaea)); experiment: Postemergence weed control under flooded paddy conditions; type: in vivo, Sagittaria pygmaea; settings: postemergence weeds
In short: (§1)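 With weeds 3 to 5 cm tall and rice at the 1.5 to 2.5 leaf stage, containers were flooded and water held 1.5 to 3 cm above soil. Compounds in 50/50 v/v aqueous/acetone went into the flood water at about 0.0313 to 0.500 kg/ha a.i. Effects were visually rated 0–9 against controls after three to four weeks in the greenhouse.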

CYPSE (Flatsedge) = experiment: as above; type: in vivo, Cyperus serotinus; settings: postemergence weeds
In short: as §1

MOOVA (Monochoria) = experiment: as above; type: in vivo, Monochoria vaginalis; settings: postemergence weeds
In short: as §1

GLXMA (Soybean) [2] = experiment: Preemergence herbicidal evaluation; type: in vivo, Glycine max; settings: rated 4-5 weeks after treatment
In short: (§2)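 Preemergence soil application of compound, sprayed in aqueous acetone at rates equivalent to about 0.0156 to 0.500 kg per hectare onto freshly sown cups. Plant response was judged by eye on a 0-9 scale four to five weeks later.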

GLXMA (Soybean) [3] = experiment: Postemergence herbicidal evaluation; type: in vivo, Glycine max
Protocol: In the tests, seedling plants are grown in jiffy flats for about two weeks. The test compounds are dispersed in 50/50 acetone/water mixtures containing 0.5% TWEEN®20, a polyoxyethylene sorbitan monolaurate surfactant of Atlas Chemical Industries, in sufficient quantities to provide the equivalent of about 0.0156 kg to 0.500 kg per hectare of active compound when applied to the plants through a spray nozzle operating at 40 psi for a predetermined time. After spraying, the plants are placed on greenhouse benches and are cared for in accordance with conventional greenhouse procedures. From four to five weeks after treatment, the seedling plants are examined and rated according to the rating system set forth below. Where more than one test is involved for a given compound, the data are averaged.
Plant species employed in these evaluations are reported by header abbreviation, common name and scientific name.
Results of herbicide evaluation are expressed on a rating scale (0-9). The scale is based upon a visual observation of plant stand, vigor, malformation, size, chlorosis and overall plant appearance as compared with a control.

[4] = tested on: IPOSS (Morningglory Spp.); experiment: Preemergence herbicidal evaluation; type: in vivo, Ipomoea Spp.; settings: rated 4-5 weeks after treatment
In short: as §2

[5] = tested on: IPOSS (Morningglory Spp.); experiment: Postemergence herbicidal evaluation; type: in vivo, Ipomoea Spp.
In short: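 Herbicidal effect was judged by eye on a 0–9 scale covering stand, vigor, deformity, size and chlorosis, compared with controls, four to five weeks after seedlings about two weeks old were sprayed (40 psi, ~0.0156–0.500 kg/ha).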

[6] = Rate 0.0313 kg/ha, rated 3 to 4 weeks after treatment
[7] = Rate 0.0625 kg/ha, rated 3 to 4 weeks after treatment
[8] = Rate 0.1250 kg/ha, rated 3 to 4 weeks after treatment
[9] = Rate 0.2500 kg/ha, rated 3 to 4 weeks after treatment
[10] = rate 0.0313 kg/ha, 3-4 weeks after treatment
[11] = rate 0.0625 kg/ha, 3-4 weeks after treatment
[12] = rate 0.1250 kg/ha, 3-4 weeks after treatment
[13] = rate 0.2500 kg/ha, 3-4 weeks after treatment
[14] = rate 0.5000 kg/ha, 3-4 weeks after treatment

CCOC(=O)CN1C(=O)C(Cc2ccccc2OC(C)C(=O)O)S/C1=N/c1cc(-n2c(=O)cc(C(F)(F)F)n(C)c2=O)c(F)cc1Cl (stereo not shown) [Compound 114, 5-[o-(1-Carboxyethoxy)benzyl]-2-{{2-chloro-5-[3,6-dihydro-3-methyl-2,6-dioxo-4-(trifluoromethyl)-1(2H)-pyrimidinyl]-4-fluorophenyl}imino}-4-oxo-3-thiazolidineacetic acid, 3-ethyl ester]
Herbicidal rating SAGPY [1, 6]: 0.0 | Herbicidal rating SAGPY [1, 7]: 0.0 | Herbicidal rating SAGPY [1, 8]: 0.0 | Herbicidal rating SAGPY [1, 9]: 0.0 | Herbicidal rating CYPSE (CYPSE (Flatsedge); [6]): 0.0 | Herbicidal rating CYPSE (CYPSE (Flatsedge); [7]): 0.0 | Herbicidal rating CYPSE (CYPSE (Flatsedge); [8]): 0.0 | Herbicidal rating CYPSE (CYPSE (Flatsedge); [9]): 0.0 | Herbicidal rating MOOVA (MOOVA (Monochoria); [6]): 6.0 | Herbicidal rating MOOVA (MOOVA (Monochoria); [7]): 8.0 | Herbicidal rating MOOVA (MOOVA (Monochoria); [8]): 9.0 | Herbicidal rating MOOVA (MOOVA (Monochoria); [9]): 9.0

CC1SC(=Nc2cc(N3C(=O)C4=C(CCCC4)C3=O)c(F)cc2Cl)N(C)C1=O (stereo not shown) [Compound 4]
Herbicidal rating SAGPY [1, 10]: 0.0 | Herbicidal rating SAGPY [1, 11]: 0.0 | Herbicidal rating SAGPY [1, 12]: 0.0 | Herbicidal rating SAGPY [1, 13]: 0.0 | Herbicidal rating SAGPY [1, 14]: 0.0 | GLXMA preemergence herbicidal rating (GLXMA (Soybean) [2]; rate 0.1250 kg/ha): 0.0 | GLXMA preemergence herbicidal rating (GLXMA (Soybean) [2]; rate 0.2500 kg/ha): 2.0 | GLXMA preemergence herbicidal rating (GLXMA (Soybean) [2]; rate 0.5000 kg/ha): 4.0 | GLXMA herbicidal rating (GLXMA (Soybean) [3]; rate 0.0313 kg/ha): 2.0 | GLXMA herbicidal rating (GLXMA (Soybean) [3]; rate 0.0625 kg/ha): 2.5 | GLXMA herbicidal rating (GLXMA (Soybean) [3]; rate 0.1250 kg/ha): 4.5 | GLXMA herbicidal rating (GLXMA (Soybean) [3]; rate 0.2500 kg/ha): 4.5 | GLXMA herbicidal rating (GLXMA (Soybean) [3]; rate 0.5000 kg/ha): 4.5 | IPOSS preemergence herbicidal rating ([4]; rate 0.1250 kg/ha): 0.0 | IPOSS preemergence herbicidal rating ([4]; rate 0.2500 kg/ha): 2.0 | IPOSS preemergence herbicidal rating ([4]; rate 0.5000 kg/ha): 9.0 | Herbicidal rating CYPSE (CYPSE (Flatsedge); [10]): 0.0 | Herbicidal rating CYPSE (CYPSE (Flatsedge); [11]): 0.0 | Herbicidal rating CYPSE (CYPSE (Flatsedge); [12]): 0.0 | Herbicidal rating CYPSE (CYPSE (Flatsedge); [13]): 0.0 | Herbicidal rating CYPSE (CYPSE (Flatsedge); [14]): 0.0 | IPOSS herbicidal rating ([5]; rate 0.0313 kg/ha): 0.0 | IPOSS herbicidal rating ([5]; rate 0.0625 kg/ha): 0.0 | IPOSS herbicidal rating ([5]; rate 0.1250 kg/ha): 0.0 | IPOSS herbicidal rating ([5]; rate 0.2500 kg/ha): 1.0 | IPOSS herbicidal rating ([5]; rate 0.5000 kg/ha): 4.0 | Herbicidal rating MOOVA (MOOVA (Monochoria); [10]): 1.0 | Herbicidal rating MOOVA (MOOVA (Monochoria); [11]): 3.5 | Herbicidal rating MOOVA (MOOVA (Monochoria); [12]): 4.0 | Herbicidal rating MOOVA (MOOVA (Monochoria); [13]): 5.5 | Herbicidal rating MOOVA (MOOVA (Monochoria); [14]): 8.0
